Holding throughout (type): cell-based, human
Data set [1] has as its system WM1552C melanoma cells. Nature of the data set: Matrigel invasion chamber assay. The note with it: 48 hours. The procedure: BD BioCoat™ growth factor reduced insert plates (Matrigel™ Invasion Chamber 12 well plates) were prepared by rehydrating the BD Matrigel™ matrix coating in the inserts with 0.5 mls of serum-free Complete Tu media for two hours at 37° C. The rehydration solution was carefully removed from the inserts, 0.5 ml Complete Tu (2% FBS) was added to the lower wells of the plate, and 2.5×10^4 cells suspended in 0.5 ml of serum-free Complete Tu media were added to each insert well. WM1552C/211(800) cells were additionally transfected with the Anti-miR miRNA Inhibiter for hsa-miR-211 as well as Negative Control #1 (Ambion) (miR-Scramble) at a concentration of 100 nM using siPORT NeoFX (Ambion). […] The number of migrating tumor cells was counted from each of five images per cell line (including miR Inhibiter transfected cells) in the central area of the filter. […] Data are expressed as the percent invasion through the membrane relative to the migration of WM1552C (Wild Type) through the membrane.
The impact of miR-211 expression on the invasive properties of WM1552C. WM1552C/211(400) and WM1552C/211(800) cells, along with WM1552C/VO, WM1552C/KC KO, and untransfected WM1552C was determined. […]
2.5×10^5 cells WM1552C/211(800) cells were seeded into wells of a 6-well plate. […] After 48 hours, the cells were harvested by trypsinization and counted using an automated cell counter (Cellometer®, Nexcelom Bioscience). […]

In data set [2] the test system is IGFBP5 3′UTR. Nature of the data set: luciferase reporter target inhibition assay with IGFBP5 3′UTR. The note with it: A375/211 cells. The source says: A putative miR-211 binding site with the sequence 5′-aaagggaa-3′ (SEQ ID NO:40) is present in the 3′-UTR of the IGFBP5 mRNA (SEQ ID NO:41; FIG. 26). In order to investigate the specificity and mechanism of miR-211 inhibition of IGFBP5, three luciferase reporter constructs were created, each having a different 3′-UTR on the luciferase gene. The constructs were as follows: (i) luciferase coding sequence with the luciferase 3′-UTR (“pcDNA6/Luc/NP3”), (ii) luciferase coding sequence with the IGFBP5 3′-UTR (“pcDNA6/Luc/NP3/IGFBP5 3′UTR”), and (iii) luciferase coding sequence with the IGFBP5 3′-UTR having a mutation in the miR-211 binding site (“pcDNA6/Luc/NP3/IGFBP5 3′UTR Mut”). The mutant miR-211 binding site is represented by SEQ ID NO:42 (5′-taagccta-3′). Vectors encoding these constructs were transfected into native A375 cells, A375 cells containing the miR-211-expressing vector (“A375/211”), or A375 cells having an empty vector (“A375/VO”). […] In the miR-211-expressing A375 cells, luciferase expression was unaffected for the constructs containing the native luciferase 3′UTR and the IGFBP5 3′UTR in which the miR-211 binding site had been altered. However, the luciferase activity was reduced by nearly 40% when the native IGFBP5 3′UTR was expressed.

Data set [3] deals with hypoxia-inducible factor 1 alpha (HIF-1α). Nature of the data set: level of HIF-1α in miR-211-expressing cells. The procedure: (§1) Deep-sequencing (RNA-seq) and proteomics (mass spectrometry) data from two melanoma cell lines A375 and W[…], each expressing miR-211 or the empty vector, were generated. […] Energy consumption was investigated in miR-211-expressing cells. Using the Seahorse XF96 Analyzer, it was determined that miR-211-expressing melanoma cells (A375) consumed nearly double the amount of oxygen as control cells expressing the empty vector (FIG. 35). […] Finally, we measured the level of hypoxia-inducible factor 1 alpha (HIF-1α) in miR-211-expressing cells. HIF-1α expression was reduced by miR-211 expression which is an indication of cellular respiration changes (FIG. 37).

For data set [4], the system named is A375 melanoma cells. Nature of the data set: cell proliferation (cell counts) of A375 lines. As to conditions: A375/211. As for the experimental part: The over-expression of KCNMA1 is often associated with both cell proliferation and cell migration/invasion in various cancers. Therefore, the effects of depletion of miR-211 and associated over-expression of KCNMA1 on these process in melanoma cells were determined. Proliferation rates of melanoma cell lines stably transfected with the miR-211 expression cassette were compared with those of untransfected melanoma cells and cell lines transfected with the empty expression vector (FIG. 8A), respectively.
Assays were performed using WM1552C, WM1552C/VO, WM1552C/211(400), WM1552C/211(800), A375, A375/VO, and A375/211 cell lines. Cells were grown in log phase, trypsinized, counted using an automated cell counter (Cellometer®, Nexcelom Bioscience), and then seeded into 75 cm^2 flasks at 5×10^5 cells per flask (in triplicate). Media was changed after 6 hours, and cells were further fed every 48 hours (Complete Tu Media). At days 4, 10, 15, and 21, cells were trypsinized, counted (Cellometer®, Nexcelom Bioscience), and then reseeded. Each assay was performed in duplicate for all cell lines.

The test system of data set [5] is A375 melanoma cells. Nature of the data set: oxygen consumption, Seahorse XF96 Analyzer. The note with it: miR-211-expressing A375 cells. The procedure: as §1

“miR-211: pre-miR-211 sequence stably expressed from plasmid pcDNA4/miR-211 in melanoma cells; mature sequence UUCCCUUUGUCAUCCUUCGCCU (SEQ ID NO: 15) (listed as Homo sapiens)”: the “migrated less than WM1552C (invasion)” value in data set [1] (WM1552C/211(400)) is listed as approximately 40%; in data set [1] (WM1552C/211(800)), approximately 60%. Further, the “reduction of luciferase activity” value in data set [2] (native IGFBP5 3′UTR construct) is approximately 40%. The luciferase expression result in data set [2] (native luciferase 3′UTR or IGFBP5 3′UTR with altered miR-211 binding site) is given as “unaffected”. Also, the HIF-1α expression result in data set [3] is on record as “reduced”. In addition, the “cell proliferation compared to untransfected A375 or A375/VO” value in data set [4] was “grew more slowly”. Also, the “amount of oxygen consumed vs empty vector control cells” value in data set [5] is on record as “nearly double”.
